Experimental data taken from US9890369B2 (priority 2013, dated 2018).
Values joined by “and” are separate entries in the source; they are usually repeats but may differ in a detail not shown here. Equal entries are not always repeated.

Columns and labels:
[1] = test system: CHO K1 cells (WTP4); assay type: cell-based, Chinese hamster
[2] = test system: CHO K1 cells; assay type: cell-based, Chinese hamster
[3] = test system: HeLa cells; assay type: cell-based, human

CN[C@@H]1C[C@H]2O[C@@](C)([C@@H]1OC)n1c3ccccc3c3c4c(c5c6ccccc6n2c5c31)C(=O)NC4 [Staurosporine, staurosporine]
% G0/G1 [1]: 42.9% and 41.8%
% G2/M [1]: 13.6% and 12.2%
apoptosis induction by TUNEL staining (in words) [2]: complete conversion of cells
apoptosis induction by PARP cleavage [3]: apoptosis induction
